In PubChem BioAssay (NCI):
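GI50 marks 50% less growth. TGI marks complete inhibition of growth.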

What was measured:
Experiment in all cases: NCI tumour cell line growth inhibition, 384-well format
786-0 renal = test system: 786-0 renal
A498 renal = test system: A498 renal
A549 NSCLC = test system: A549 NSCLC
ACHN renal = test system: ACHN renal
BT-549 breast = test system: BT-549 breast
CAKI-1 renal = test system: CAKI-1 renal
CCRF-CEM leukemia = test system: CCRF-CEM leukemia
COLO 205 colon = test system: COLO 205 colon
DU-145 prostate = test system: DU-145 prostate
EKVX NSCLC = test system: EKVX NSCLC
HCC-2998 colon = test system: HCC-2998 colon
HCT-116 colon = test system: HCT-116 colon
HCT-15 colon = test system: HCT-15 colon
HL-60(TB) leukemia = test system: HL-60(TB) leukemia
HOP-62 NSCLC = test system: HOP-62 NSCLC
HOP-92 NSCLC = test system: HOP-92 NSCLC
HS 578T breast = test system: HS 578T breast
HT29 colon = test system: HT29 colon
K-562 leukemia = test system: K-562 leukemia
KM12 colon = test system: KM12 colon
LOX IMVI melanoma = test system: LOX IMVI melanoma
M14 melanoma = test system: M14 melanoma
MALME-3M melanoma = test system: MALME-3M melanoma
MCF7 breast = test system: MCF7 breast
MDA-MB-231 breast = test system: MDA-MB-231 breast
MDA-MB-435 melanoma = test system: MDA-MB-435 melanoma
MDA-MB-468 breast = test system: MDA-MB-468 breast
MOLT-4 leukemia = test system: MOLT-4 leukemia

Compound: CCc1cc(C(N)=O)ccc1-n1nc(C(C)C)c2c(-n3cnc(-c4cnn(C)c4)c3)ccnc21
- GI50 ([…]-0 renal): 825 nM
- TGI (786-0 renal): > 100000 nM
- GI50 (A498 renal): 1110 nM
- TGI (A498 renal): > 100000 nM
- GI50 (A549 NSCLC): 411 nM
- TGI (A549 NSCLC): > 100000 nM
- GI50 (ACHN renal): 902 nM
- TGI (ACHN renal): > 100000 nM
- GI50 (BT-549 breast): 651 nM
- TGI (BT-549 breast): 9960 nM
- GI50 (CAKI-1 renal): 767 nM
- TGI (CAKI-1 renal): > 100000 nM
- GI50 (CCRF-CEM leukemia): 289 nM
- TGI (CCRF-CEM leukemia): 1250 nM
- GI50 (COLO 205 colon): 392 nM
- TGI (COLO 205 colon): > 100000 nM
- GI50 (DU-145 prostate): 369 nM
- TGI (DU-145 prostate): 5800 nM
- GI50 (EKVX NSCLC): 712 nM
- TGI (EKVX NSCLC): > 100000 nM
- GI50 (HCC-2998 colon): 406 nM
- TGI (HCC-2998 colon): 1870 nM
- GI50 (HCT-116 colon): 561 nM
- TGI (HCT-116 colon): 82900 nM
- GI50 (HCT-15 colon): 534 nM
- TGI (HCT-15 colon): > 100000 nM
- GI50 (HL-60(TB) leukemia): 189 nM
- TGI (HL-60(TB) leukemia): 405 nM
- GI50 (HOP-62 NSCLC): 584 nM
- TGI (HOP-62 NSCLC): > 100000 nM
- GI50 (HOP-92 NSCLC): 675 nM
- TGI (HOP-92 NSCLC): 3060 nM
- GI50 (HS 578T breast): 418 nM
- TGI (HS 578T breast): 2230 nM
- GI50 (HT29 colon): 398 nM
- TGI (HT29 colon): > 100000 nM
- GI50 (K-562 leukemia): 326 nM
- TGI (K-562 leukemia): 3660 nM
- GI50 (KM12 colon): 374 nM
- TGI (KM12 colon): > 100000 nM
- GI50 (LOX IMVI melanoma): 382 nM
- TGI (LOX IMVI melanoma): 1260 nM
- GI50 (M14 melanoma): 488 nM
- TGI (M14 melanoma): 23000 nM
- GI50 (MALME-3M melanoma): 240 nM
- TGI (MALME-3M melanoma): 502 nM
- GI50 (MCF7 breast): 305 nM
- TGI (MCF7 breast): > 100000 nM
- GI50 (MDA-MB-231 breast): 643 nM
- TGI (MDA-MB-231 breast): 6070 nM
- GI50 (MDA-MB-435 melanoma): 653 nM
- TGI (MDA-MB-435 melanoma): > 100000 nM
- GI50 (MDA-MB-468 breast): 276 nM
- TGI (MDA-MB-468 breast): 595 nM
- GI50 (MOLT-4 leukemia): 182 nM
- TGI (MOLT-4 leukemia): 349 nM
